Experimental data as given in US6468567B1, “Malt beverage having stabilized flavor and methods of production thereof” (Cerveceria Polar, C.A., priority 1997, dated 2002).

Assay: Addition of 1,2-phenylenediamine to wort (chromatogram)
Settings: wort + 1,2-phenylenediamine versus wort; FIG. 5
Procedure: FIG. 5. […] A: wort. B: wort+1,2-phenylenediamine.
A fixed volume (2.2 ml) of 5% 1,2-phenylenediamine (OPD) in methanol was added to a bottle of beer (222 ml) that was then recapped and kept at 20° C. for 12 hours. After 12 hours of reaction, 25 ml of sample were extracted with chloroform (3×8 ml). The chloroform organic phase was removed by centrifugation at 3000 rpm for 10 min, collected, washed with 0.1 M HCl (3×8 ml) in order to remove the unreacted 1,2-phenylenediamine, and semi-dried with magnesium sulfate. The semi-dried organic phase, which contained the hydrophobic quinoxaline derivatives, was then rotavapped to dryness, and the residue resuspended in 250 μl of acetonitrile, and diluted 1/10 (50% solvent A and 50% solvent B) before chromatographic analysis. Hydrophobic quinoxalines were analyzed using Method I (see below). The aqueous phase, containing hydrophilic quinoxalines, was injected directly and analyzed using Method II (see below).
Chromatographic conditions were as follows: a Nova-Pak C18 (Waters) column 3.9×150 mm, 4 μm was used. The mobile phase was: solvent A—95% water (Milli-Q) and 5% acetonitrile; solvent B—90% acetonitrile and 10% water; flow rate 0.7 ml/min. Elution was monitored with a Waters 991 Photodiode Array Detector (200 nm-360 nm).

Nc1ccccc1N [1,2-phenylenediamine]
change in the LC18 peak: specific reduction
